From patent US8957053B2, “Proliposomal testosterone formulations” (Tesorx Pharma, LLC, priority 2012, dated 2015)

How the values were obtained:
[1] = Solubility in SLS after sonication; assay type: physicochemical; conditions: 1% w/v SLS, sonication 10 min
Procedure: Solubility of: a) 10 mg pure testosterone; and b) formulation PLF-2 equivalent to 10 mg testosterone in either 0.5%, 1%, or 2% SLS following sonication for 10 min. was determined. For these studies, 10 mg of pure testosterone was weighed and dissolved in either 100 ml of 0.5%, 1%, or 2% (w/v) SLS, respectively, in volumetric flasks. An amount of formulation PLF-2 that contained 10 mg of testosterone was weighed, and sample solutions were prepared in a similar way as that described above for the testosterone control. These solutions were subjected for sonication for 10 min in a bath sonicator. The samples were then filtered and diluted suitably in their respective concentrations of SLS. The amounts of soluble testosterone for each concentration of SLS was determined by using the HPLC assay method described in Comparative Example 2.

[2] = Solubility of testosterone in various buffers; assay type: physicochemical; conditions: phosphate buffer pH 6.80, 72 h at RT
Procedure: The solubility of testosterone in different media was tested. An amount of testosterone (100 mg) was added to each of four glass vials containing 10 ml of either: a) HCl buffer (pH 1.20), b) Acetate buffer (pH 4.50), c) phosphate buffer solution (PBS) pH 6.80 and d) nano pure water. These samples were subjected for shaking in a water bath for 72 h at RT. The samples were suitably diluted and analyzed by the HPLC assay method described in Comparative Example 2. Solubility of testosterone was high in phosphate buffer pH 6.80.

C[C@]12CC[C@H]3[C@@H](CCC4=CC(=O)CC[C@@]43C)[C@@H]1CC[C@@H]2O [testosterone]
testosterone solubility [1]: high testosterone solubility | Solubility of testosterone [2]: high
